Paper PMC12213745, “Compounds from Cyclocarya paliurus leaves inhibit binary division of methicillin-resistant Staphylococcus aureus by disrupting FtsZ dynamic” (Frontiers in Microbiology, 2025)
Converted amounts (≈) assume the structure as drawn. Where two headings read alike, the source gives them in different places.

How the values were obtained:
S. aureus ATCC25923 = experiment: SEM analysis, cell long axis; assay type: cell-based, Staphylococcus aureus; conditions: 2 × MIC, 2 h, mean ± SD, PBS control 0.52 ± 0.05
Protocol: Scanning electron microscopy (SEM) was used to observe the morphological changes in bacterial cells treated with the isolated compounds. S. aureus ATCC 25923 and MRSA-4 were grown in MHB to mid-log phase (OD600 = 0.4–0.6) as previously described. The bacteria cultures were treated with AA, MA, or UA at 2 × MIC for 2 h at 37°C with shaking at 150 rpm. Untreated cultures (PBS group) served as the growth control. After incubation, bacterial cells were harvested by centrifugation and washed three times with PBS (pH 7.2). Coverslips (8 mm diameter) were cleaned with absolute ethanol under ultrasonication, air-dried, immersed in 0.1% (w/v) chitosan solution (dissolved in 1% acetic acid) for 5 s, and air-dried again at room temperature ([Su et al., 2022]). A 25 μL aliquot of the washed bacterial suspension was added to each coverslip and allowed to adhere for 1 h at room temperature. Adhered cells were fixed with 1 mL of 2.5% (v/v) glutaraldehyde at 4°C overnight. Fixed samples were rinsed 2–3 times with PBS (5 min per rinse), then dehydrated through a graded ethanol series: 50, 70, and 90% ethanol (each once for 5 min), followed by 100% ethanol (three times for 5 min each). After dehydration, samples were air-dried overnight at room temperature. SEM imaging was performed using an EVO 10 scanning electron microscope (Zeiss, Jena, Germany). Cell long-axis statistical analysis was conducted using ImageJ software (Version 1.42q, National Institutes of Health, MD, USA).
Having established the antibacterial activity of AA, MA, and UA, we next examined their effects on bacterial morphology. We employed SEM to examine the alterations induced by these compounds in S. aureus ATCC25923 and MRSA-4. Bacterial cultures were treated with AA, MA, or UA at 2 × MIC for 2 h, while untreated (PBS group) cultures served as negative controls. […] In PBS groups, both S. aureus ATCC25923 and MRSA-4 maintained typical spherical morphology with smooth and intact surfaces.

MRSA-4 = experiment: MIC, broth microdilution (CLSI); assay type: cell-based, Methicillin-resistant S. aureus; conditions: Staphylococcus aureus
Description: Staphylococcus aureus ATCC25923 and Escherichia coli ATCC25922 were obtained from the American Type Culture Collection (ATCC, Manassas, VA, USA). The Methicillin-resistant S. aureus (MRSA) clinical isolate MRSA-4, previously confirmed as mecA-positive and characterized for its antibiotic resistance profile ([Sun et al., 2023]), was used in this study. Staphylococcus epidermidis (GDMCC 1.143), Enterococcus faecalis (GDMCC 1.164), and Salmonella enterica subsp. enterica (GDMCC 1.1114) were obtained from the Guangdong Microbial Culture Collection Center (GDMCC, Guangzhou, China). The Pseudomonas aeruginosa PA14 strain was kindly provided by Professor Min Wu (Southwest Medical University, China). All bacterial strains were routinely cultured in Mueller-Hinton broth (MHB) or Luria-Bertani (LB) broth medium at 37°C with shaking at 200 rpm. Vancomycin was purchased from Solarbio Science & Technology Co., Ltd. (Beijing, China), and oxacillin was obtained from Taiji Group Hengsheng Pharmaceutical Co., Ltd. (Chengdu, China). The polyclonal rabbit primary anti-body to FtsZ was purchased from Abcam PLC (Cambridge, UK). Alexa488-conjugated goat anti-rabbit IgG was purchased from ZSGB-BIO Biotechnology (Beijing, China). DAPI staining solution was purchased from Beyotime Biotechnology (Shanghai, China).
The minimum inhibitory concentrations (MICs) of the test compounds (AA, MA, and UA) were determined using the standard broth microdilution method in accordance with the Clinical and Laboratory Standards Institute (CLSI) guidelines ([Humphries et al., 2021]). Bacteria were cultured in MHB or LB broth at 37°C with shaking (200 rpm) to the logarithmic phase, then diluted to a final density of 1 × 10^6 CFU/mL. Test compounds (dissolved in DMSO) and positive controls (vancomycin and oxacillin) were diluted in MHB and serially twofold diluted in 96-well plates. Each well was inoculated with 100 μL of bacterial suspension (1 × 10^6 CFU/mL), yielding a final bacterial density of 5 × 10^5 CFU/mL and a total volume of 200 μL. The final concentrations tested were 128 to 1 μg/mL for AA, MA, and UA; 16 to 0.5 μg/mL for vancomycin; and 64 to 0.0625 μg/mL for oxacillin. DMSO was used as a solvent control. Plates were incubated statically at 37°C for 18–24 h. After incubation, the OD600 was measured using a microplate reader (SpectraMax i3x, Molecular Devices, CA, USA). The MIC was defined as the lowest compound concentration that caused ≥ 90% inhibition of bacterial growth compared to the drug-free growth control. All tests were performed in three independent biological replicates.
Following the isolation and identification of AA, MA, and UA from ECPL, we evaluated their antibacterial activity and spectrum. The MICs of the compounds were determined against MRSA-4, S. aureus ATCC25923, S. epidermidis, and E. faecalis (Gram-positive), as well as P. aeruginosa PA14, E. coli ATCC25922, and S. enterica subsp. Enterica (Gram-negative) using the standard broth microdilution method in accordance with CLSI guidelines ([Humphries et al., 2021]).

[1] = MRSA-4, ≥ 90% growth inhibition, 18–24 h, read-out: MIC

Compound | length of long axis of cells (S. aureus ATCC25923) [μm] | MIC (MRSA-4; [1]) [µg/mL] | MIC (MRSA-4; MRSA) [µg/mL]
C[C@H]1[C@H](C)CC[C@]2(C(=O)O)CC[C@]3(C)C(=CC[C@@H]4[C@@]5(C)C[C@@H](O)[C@H](O)[C@@](C)(CO)[C@@H]5CC[C@]43C)[C@H]12 [AA, asiatic acid] | 0.78 ± 0.06 | 32 (≈ 65.5 µM) | –
C[C@H]1[C@H](C)CC[C@]2(C(=O)O)CC[C@]3(C)C(=CC[C@@H]4[C@@]5(C)CC[C@H](O)C(C)(C)[C@@H]5CC[C@]43C)[C@H]12 [UA, ursolic acid] | 0.75 ± 0.05 | 8 (≈ 17.5 µM) | –
CC1(C)CC[C@]2(C(=O)O)CC[C@]3(C)C(=CC[C@@H]4[C@@]5(C)C[C@@H](O)[C@H](O)C(C)(C)[C@@H]5CC[C@]43C)[C@@H]2C1 [MA, maslinic acid] | 0.78 ± 0.07 | – | 32 (≈ 67.7 µM)
